Results on two compounds are retold here after US20150037269A1, “TOPICAL COMPOSITIONS FOR TREATMENT OF EXCESSIVE SWEATING AND METHODS OF USE THEREOF” (GlaxoSmithKline Intellectual Property Development Limited, priority 2013, published 2015).

By Cmax is commonly meant the peak of the concentration-time curve. One may read the bioavailability as dose-corrected exposure relative to a reference, in per cent.

The structures appear in SMILES notation.

A short description of series [1]: Irritation potential of topical solution. The conditions noted are these: solution comprising 2.2% w/w.
Series [2] is described as follows: MALDI imaging of distribution in skin layers. The series is classed as in vitro ADME, human. The conditions noted are these: twenty-four hours after single finite topical dose. From the text: Matrix-assisted laser desorption/ionization (MALDI) has emerged as a powerful and diverse technology for analyzing the spatial distribution of endogenous and exogenous compounds directly from a tissue section. [See Seeley E H, Caprioli R M. MALDI imaging mass spectrometry of human tissue: method challenges and clinical perspectives. Trends Biotechnol. 29(3), 136-143 (2011); and Svatos A. Mass spectrometric imaging of small molecules. Trends Biotechnol. 28(8), 425-434 (2010)]. […] Anal Bioanal Chem. (2013); 405(4):1159-70]. MALDI imaging in human skin tissue sections: focus on various matrices and enzymes.

The nature of series [3]: Clinical study: single radiolabelled topical dose to axilla or palm of healthy male subjects. The series is classed as in vivo, human. The conditions noted are these: for Cmax: male, human, plasma, topical, 3.05 mg. The method, then: Up to four cohorts were to be enrolled (Cohort A: unoccluded axilla; Cohort B: occluded axilla; Cohort C: unoccluded palm; Cohort D: occluded palm). Six subjects were to be dosed in each cohort and complete the study procedures.
On the day of dosing, subjects will receive the study drug applied to the axilla or palm. Each subject will only receive a single dose of study drug which will be applied to the test site and remain on the application site for 8 hours. Serial blood samples will be collected throughout treatment. An interim analysis using simulations will be conducted after each cohort to determine the likelihood of exceeding the safety cover for Cmax or AUC and the likelihood of obtaining quantifiable concentrations sufficient to determine the half-life in the subsequent cohorts.

Series [4] can be described thus: Population pharmacokinetic model (IV plus dermal occluded axilla data). Type of series: in vivo, human. From the text:
Of the drug that was available systemically, 9.70% (66.7%) was absorbed through a zero order process.

For series [5] the following is noted: cited from earlier work.
Setting [6] is: PopPK, IV and dermal occluded axilla.

Consider `OC(c1ccccc1)(c1ccccc1)C12CC[N+](CCOCc3ccccc3)(CC1)CC2` [umeclidinium bromide], for which, in series [1], the irritation potential entry is “low irritation potential”.

On to `OC(c1ccccc1)(c1ccccc1)C12CC[N+](CCOCc3ccccc3)(CC1)CC2` [umeclidinium, 4-[hydroxy(diphenyl)methyl]-1-{2-[(phenylmethyl)oxy]ethyl}-1-azoniabicyclo[2.2.2]octane], for which the “qualitative distribution in skin layers” value in series [2] was “penetrated to the deeper sections of the dermis and accumulated in the area where the sweat glands are present”. For the same compound, the concentration in series [3] (occluded axilla (Cohort B), CV 122%) peaked (Cmax) at 7.92 pg/mL. Moreover, the highest level in series [3] (unoccluded axilla (Cohort A), CV 144%) (Cmax) was 2.33 pg/mL. In addition, the “samples quantifiable up to” value in series [3] (occluded axilla (Cohort B), post dose) was in the range of 16 to 72 h. Also, the “mean percent dose recovered from the skin surface” value (“mean percent dose recovered” below) in series [3] (occluded axilla (Cohort B), range 69.2%-81.7%) was 75.4%. For the same compound, in series [3] (occluded axilla (Cohort B), range 2 h-24 h), the “median time to maximum concentration” value is 13 h. Also, in series [3] (occluded palm (Cohort D)), the plasma concentrations result is given as “no quantifiable plasma concentrations”. Moreover, in series [3] (occluded palm (Cohort D), range 45.6%-59.9%), the “mean percent dose recovered” value is listed as 52.5%. Further, in series [3] (unoccluded axilla (Cohort A), end of 8 hour application, range 77.7-84.1%), the “mean percent dose recovered” value stood at 80.6%. Also, the “quantifiable plasma concentrations up to” value in series [3] (unoccluded axilla (Cohort A), one subject, post-dose) is “up to 72 hours”. Also, the “median time to maximum plasma concentration” value in series [3] (unoccluded axilla (Cohort A), range 12 h-30 h) was 13 h. Besides, in series [4] (setting [6]), the “CL2 Intercompartmental Clearance, Mean (RSE %)” value is on record as 39376 (26.0%) mL/h; the “CL Elimination clearance, Mean (RSE %)” value is reported as 45241 (23.6%) mL/h; the “F1 Fraction of the bioavailable drug absorbed through a zero order process, Mean (RSE %)” value is 0.097 (66.7%); the “Ka First order absorption rate constant, Mean (RSE %)” value is on record as 0.094 (54.1%). For the same compound, in series [4] (setting [6]), the “Tlag Lag time for the first order absorption process, Mean (RSE %)” value was 8.61 (15.3%) hr; the “V1 Volume of central compartment, Mean (RSE %)” value is listed as 7726 (17.6%) mL; the “V2 Volume of peripheral compartment, Mean (RSE %)” value was 261058 (57.3%) mL. For the same compound, in series [4] (PopPK, fraction), the “F Absolute plasma bioavailability following administration to occluded axilla, Mean (RSE %)” value is on record as 0.0019 (55.3%). The bioavailability in series [4] (human, plasma, topical, 3.05 mg, occluded axilla, RSE 55.3%, read-out: estimated absolute plasma bioavailability) was 0.19%. Besides, the “share of systemically available drug absorbed through a zero order process” value in series [4] (occluded axilla, RSE 66.7%) is recorded as 9.70%. The “tolerability in thorough QT study” value in series [5] (0.5 mg inhaled once daily for 10 days) was “well tolerated”. For the same compound, the “tolerability in clinical development program” value in series [5] (oral, intravenous and oral inhalation routes) is listed as “well tolerated”.
